Columns and labels:
[1] = test system: A549 cells; experiment: Cell viability; format: cell-based; settings: for Antiproliferative activity against A549, in words: A549 cells; for IC50: Homo sapiens, A549, 72 h, read-out: Anti-proliferative activity IC50, A549
[2] = test system: MCF-7 cells; experiment: Cell viability; format: cell-based; settings: for IC50: Homo sapiens, MCF7, 72 h, read-out: Anti-proliferative activity IC50, MCF-7; for Antiproliferative activity against MCF-7, in words: MCF-7 cells
[3] = test system: TNF-α, IL-1α, IL-1β mRNA expression; experiment: Quantitative RT-PCR of NTHi-induced cytokine mRNA in BEAS-2B cells; format: cell-based, human; settings: 1 µM, 2 h pretreatment, 1.5 h NTHi, relative to SAHA
[4] = test system: NF-κB; experiment: NF-κB luciferase assay in NTHi-stimulated BEAS-2B cells; format: cell-based, human

| SMILES | IC50 [1] [µM] | IC50 [2] [µM] | NF-κB inhibition IC50 ([4]; NTHi-stimulated BEAS-2B cells, luciferase) | Antiproliferative activity against A549, in words [1] | Antiproliferative activity against MCF-7, in words [2] | Suppression of NTHi-induced TNF-α, IL-1α, IL-1β mRNA expression [3] | Effect on NF-κB activation, in words ([4]; NTHi infected BEAS-2B cells, 1 µM pre-screen) |
| --- | --- | --- | --- | --- | --- | --- | --- |
| CC[C@@H]1OC(=O)[C@@H](C)[C@H](O[C@H]2C[C@@](C)(OC)[C@@H](O)[C@H](C)O2)[C@@H](C)[C@H](O[C@H]2O[C@@H](C)C[C@@H](N(C)C)[C@@H]2O)[C@](C)(O)C[C@H](C)CN(Cc2ccc(-c3cn(CCCCC(=O)NO)nn3)cc2)[C@H](C)[C@H](O)[C@@]1(C)O [Compound 8d, (Azithromycin-(N10-(4-triazolylbenzyl)))-N-hydroxypentanamide] | > 20 | > 20 |  | devoid of antiproliferative activities | devoid of antiproliferative activities |  |  |
| CC[C@@H]1OC(=O)[C@@H](C)[C@H](O[C@H]2C[C@@](C)(OC)[C@@H](O)[C@H](C)O2)[C@@H](C)[C@H](O[C@H]2O[C@@H](C)C[C@@H](N(C)C)[C@@H]2O)[C@](C)(O)C[C@H](C)CN(Cc2ccc(-c3cn(CCCCCCC(=O)NO)nn3)cc2)[C@H](C)[C@H](O)[C@@]1(C)O [Compound 8f, (Azithromycin-(N10-(4-triazolylbenzyl)))-N-hydroxyheptanamide] |  |  |  |  |  | more significantly suppressed |  |
| CC[C@@H]1OC(=O)[C@H](C)[C@@H](O[C@@H]2C[C@](C)(OC)[C@H](O)[C@@H](C)O2)[C@@H](C)[C@@H](O[C@@H]2O[C@H](C)C[C@H](N(C)Cc3cccc(-c4cn(CCCCCCC(=O)NO)nn4)c3)[C@H]2O)[C@](C)(O)C[C@@H](C)CN(C)[C@H](C)[C@@H](O)[C@]1(C)O [Compound 16b, (Azithromycin-3′-(N-(3-triazolylbenzyl)))-N-hydroxyheptanamide] |  |  |  | potently inhibited | potently inhibited |  |  |
| CC[C@H]1OC(=O)[C@H](C)C(=O)[C@H](C)[C@@H](O[C@@H]2O[C@H](C)C[C@H](N(C)Cc3ccc(-c4cn(CCCCCCC(=O)NO)nn4)cc3)[C@H]2O)[C@@](C)(OC)C[C@@H](C)C2=NCCN3C(=O)O[C@@]1(C)[C@H]3[C@H]2C [Compound 26f] |  |  |  |  |  | more significantly suppressed |  |
| CC[C@@H]1OC(=O)[C@@H](C)[C@H](O[C@H]2C[C@@](C)(OC)[C@](O)(CN(C)Cc3ccc(-c4cn(CCCCCCC(=O)NO)nn4)cc3)[C@H](C)O2)[C@H](C)[C@H](O[C@@H]2O[C@H](C)C[C@H](N(C)C)[C@H]2O)[C@@](C)(OC)C[C@H](C)C(=O)[C@@H](C)[C@@H](O)[C@@]1(C)O [Compound 38f] |  |  |  | potently inhibited | potently inhibited | more significantly suppressed |  |
| CC[C@H]1OC(=O)[C@@H](C)[C@H](O[C@H]2C[C@@](C)(OC)[C@](O)(CN(C)Cc3ccc(-c4cn(CCCCCCC(=O)NO)nn4)cc3)[C@H](C)O2)[C@H](C)[C@H](O[C@H]2O[C@@H](C)C[C@@H](N(C)C)[C@@H]2O)[C@@](C)(O)C[C@H](C)CN(C)[C@@H](C)[C@H](O)[C@@]1(C)O [Compound 39f, (Azithromycin-4′′-(methylamino)-N(methyl)(4-benzyltriazolyl))-N-hydroxyheptanamide] | > 20 | > 20 |  | non-cytotoxic | non-cytotoxic |  |  |
| CC[C@@H]1OC(=O)[C@@H](C)[C@H](O[C@@H]2C[C@](C)(OC)[C@@](O)(CN(C)C)[C@@H](C)O2)[C@H](C)[C@H](O[C@@H]2O[C@H](C)C[C@H](N(C)Cc3ccc(-c4cn(CCCCCCC(=O)NO)nn4)cc3)[C@H]2O)[C@@](C)(OC)C[C@H](C)C(=O)[C@@H](C)[C@@H](O)[C@@]1(C)O [Compound 49b, (Clarithromycin-(4′-N-(4-benzyltriazolyl))-4′′-(N,N-dimethylaminomethyl))-N-hydroxyheptanamide] |  |  |  | potently inhibited | potently inhibited |  |  |

Second part, led by results:

| IC50 [1] [µM] | IC50 [2] [µM] | NF-κB inhibition IC50 ([4]; NTHi-stimulated BEAS-2B cells, luciferase) | SMILES | Antiproliferative activity against A549, in words [1] | Antiproliferative activity against MCF-7, in words [2] | Suppression of NTHi-induced TNF-α, IL-1α, IL-1β mRNA expression [3] | Effect on NF-κB activation, in words ([4]; NTHi infected BEAS-2B cells, 1 µM pre-screen) |
| --- | --- | --- | --- | --- | --- | --- | --- |
| > 20 | > 20 |  | CC[C@@H]1OC(=O)[C@H](C)[C@@H](O[C@@H]2C[C@](C)(OC)[C@H](O)[C@@H](C)O2)[C@@H](C)[C@@H](O[C@@H]2O[C@H](C)C[C@H](N(C)Cc3ccccc3-c3cn(CCCCCCC(=O)NO)nn3)[C@H]2O)[C@](C)(O)C[C@@H](C)CN(C)[C@H](C)[C@@H](O)[C@]1(C)O [Compound 15b, (Azithromycin-3′-(N-(2-triazolylbenzyl)))-N-hydroxyheptanamide] | devoid of antiproliferative activities | devoid of antiproliferative activities |  |  |
| > 20 | > 20 |  | CC[C@H]1OC(=O)[C@@H](C)[C@H](O[C@H]2C[C@@](C)(OC)[C@@H](O)[C@H](C)O2)[C@H](C)[C@H](O[C@H]2O[C@@H](C)C[C@@H](N(C)Cc3ccc(-c4cn(CCCC(=O)NO)nn4)cc3)[C@@H]2O)[C@@](C)(O)C[C@H](C)CN(C)[C@@H](C)[C@H](O)[C@@]1(C)O [Compound 17c] | devoid of antiproliferative activities | devoid of antiproliferative activities |  |  |
| > 20 | > 20 |  | CC[C@H]1OC(=O)[C@H](C)C(=O)[C@H](C)[C@@H](O[C@@H]2O[C@H](C)C[C@H](N(C)Cc3ccccc3-c3cn(CCCCCCC(=O)NO)nn3)[C@H]2O)[C@@](C)(OC)C[C@@H](C)C2=NCCN3C(=O)O[C@@]1(C)[C@H]3[C@H]2C [Compound 24b, (Tricyclic Ketolide-3′-(N-(2-triazolylbenzyl)))-N-hydroxyheptanamide] | devoid of antiproliferative activities | devoid of antiproliferative activities |  |  |
| > 20 | > 20 | no dose-dependent effect | CC[C@H]1OC(=O)[C@H](C)C(=O)[C@H](C)[C@@H](O[C@@H]2O[C@H](C)C[C@H](N(C)Cc3cccc(-c4cn(CCCCCC(=O)NO)nn4)c3)[C@H]2O)[C@@](C)(OC)C[C@@H](C)C2=NCCN3C(=O)O[C@@]1(C)[C@H]3[C@H]2C [Compound 25a, (Tricyclic Ketolide-3′-(N-(3-triazolylbenzyl)))-N-hydroxyhexanamide] | non-cytotoxic | non-cytotoxic |  | suppressing NF-κB activation |

— publication PMC4685012 (Bioorganic & medicinal chemistry, 2015)
